Reference: US11155580B2, “Modified proteins and methods of use thereof” (YALE UNIVERSITY, priority 2013, dated 2021)
Where no end group is shown, it is not given here. rhodamine = not defined here; Rhod = not defined here

Key:
[1] = Figure 15
From the text: Table printed on a drawing sheet, Figure 15
The amino acid sequence of Arg8 is provided in SEQ ID NO:68.
First reader's note: Cytosolic concentration and percent in cytosol are taken as measures of cell permeability or uptake; the supplied text has no description of Figure 15.

[2] = test system: HeLa cells; test: Colocalization with Alexa-488-transferrin (Tf488), live cell confocal microscopy; type: cell-based; conditions: 1 μM, 30 min
Experimental: To examine the colocalization of rhodamine labeled miniature proteins or peptides with Alexa-488-transferrin (Tf488), HeLa cells were plated (200 μl, 10^4 cells/well, 96 well glass bottom plates, Matrical) the day prior to experiments. The media was replaced with 150 μL Hepes-Krebs-Ringer's (HKR) buffer (140 mM NaCl, 2 mM KCl, 1 mM CaCl2, 1 mM MgCl2, 10 mM Hepes pH 7.4) containing 1 μM miniature protein or 25 nM Alexa-488-transferrin (Molecular Probes) and the cells incubated at 37° C. for 30 min. The cells were then rinsed twice with 200 μL, HKR buffer and nuclei were labeled by overlaying 200 μL HKR containing 300 nM Hoechst 33342 (Molecular Probes Cat. # H3570) for 5 minutes. Images of cells were acquired using a PerkinElmer LiveView spinning disk confocal microscope fitted with a 60×1.2 NA objective. Colocalization with Rab-GFP fusions was examined in an analogous way using HeLa cells transfected with the appropriate expression plasmid.
Colocalization between rhodamine and fluorescein labeled miniature proteins and peptides, or between rhodamine labeled miniature proteins and markers of endocytosis was completed using confocal microscopy. Live cell confocal microscopy was conducted using a PerkinElmer LiveView spinning disk confocal microscope fitted with heated microscope enclosure (maintained at 37° C.), a 60×1.2 NA objective, laser illumination, a Nipkow CSU-1× spinning disk, and a Hammamatsu CS9100 EMCCD camera operated using Velocity software. Alexafluor-488-transferrin was detected using a 488 nm laser and a 520 nm long pass filter; tetraethylrhodamine and Alexafluor-546-transferrin were detected using a 546 nm laser line and a 580 nm long pass filter, Hoescht 33342 was detected using a 405 nm laser line and a 450 nm long pass filter. Images were processed for presentation by using the ‘subtract background’ option and linear contrast adjustments in Image J. All adjustments were applied uniformly to the entire image. Colocalization analysis was performed using the JACOP plugin (Bolte and Cordelières, 2006), available on the ImageJ website. The fraction of rhodamine signal overlapping with EGFP signal (R E G) was calculated using Mander's coefficient and automatic thresholding. Pearson's correlation coefficient (R) was also obtained using the JACOP plugin.

[3] = target: cathepsin B (Homo sapiens, UniProt P07858); test: Resistance to acid proteases: cathepsin B; type: in vitro ADME; conditions: 50 pmol, 30 min, 37° C., pH 5
Experimental: 50 pmol aPPR, 5.2R, 5.3R, ZF5.3R, TatR (SEQ ID NO:67), or Arg8R (SEQ ID NO:68) were incubated with 5 pg cathepsin B, D, or L for 30 min at 37° C. in 10 μL of 20 mM sodium phosphate buffer (pH 5) containing 150 mM NaCl. At the end of the incubation, the reaction was stopped by adding 40 μL of a solution containing a 84:15:1 ratio of water:EtOH:TFA before analysis by HPLC.

[4] = test system: HeLa cells transfected with pGR-mCherry and Rab5-GFP or Rab5Q79L-GFP; test: GR-mCherry translocation in cells expressing Rab5-GFP or Rab5Q79L-GFP; type: cell-based; conditions: 1 μM, 30 min
Experimental: Cotransfected cells expressing Rab-GFP fusions and pGR-mCherry were identified via their characteristic pattern of green and red fluorescence. The translocation ratio was determined using median values of mCherry fluorescence within the nucleus and surrounding region using CellProfiler.
HeLa cells transfected for 24-36 hr with pGR-mCherry and either Rab5-GFP or Rab5Q79L-GFP were plated (10^4/well in […]) the day prior to experiments in 96 well glass bottom plates (Matrical). The cells were washed with HKR buffer and the nuclei labeled using Hoescht as above. […] The cells were incubated for a further 30 min at 37° C. before imaging. Cells that had been cotransfected with EGFP fusions were identified via their characteristic pattern of green and red fluorescence. To evaluate the extent of GR activation, epifluorescence images were obtained as described above, except the fluorescence of pGR-mCherry was also visualized using Zeiss Filter Set #43 (ex BP 545/25 nm, FT 570, em BP 605/70 nm).
(§1) The image analysis algorithm used by CellProfiler is customizable and contained within a ‘Pipeline’ that describes a series of image manipulation and evaluation steps, such as reading the image, adjusting the intensity, and identifying objects. Each step has several options. […] Using the image of Hoescht fluorescence and Otsu's method of automatic thresholding, nuclei were identified and segmented using 3 class thresholding. The middle class was assigned to background. Closely approximated objects were separated using ‘Laplacian of Gaussian’ modeling, and touching nuclei were divided using the ‘shape’ option. Nuclear regions were expanded by 2 μm to generate an enlarged region. The nuclear region was subtracted from enlarged region to generate a ring surrounding the nucleus (surround). The diameter of the surrounding region was chosen to be 2 μm larger than the nucleus, within the range (1-3 μm) used by previously reported high content screens (Ding et al., 1998, J Biol Chem. 273:28897-28905; Peeraniet al., 2007, EMBO J. 26:4744-4755). The ratio of the median intensities of the nuclear and surrounding region of the GFP or mCherry (as appropriate) image were collected for every cell examined. Those cells falling below a threshold of intensity (10% of the maximum intensity of the image) were discarded as ‘untransfected’. Typically, 20-60 transfected cells from 15-30 images were examined for each experimental condition.

[5] = test system: HeLa cells transfected with GR-GFP; test: GR-GFP translocation assay (cytosolic access of Dex-labeled molecules); type: cell-based; conditions: for translocation ratio (TR): HeLa cells expressing GR-GFP
Experimental: HeLa cells transfected with pK7-GR-GFP were plated in Matrical plates as described above. To label nuclei, the media was replaced with HKR buffer containing 300 nM Hoescht and the cells incubated for 30 min at 37° C.
Cells were then analyzed as described above.
HeLa cells transfected with pK7-GR-GFP for 24-36 hr were plated (10^4/well in 200 μL) the day prior to experiments in 96 well glass bottom plates (Matrical). The media was replaced with HKR buffer containing 300 nM Hoescht and the cells incubated for 30 min at 37° C. […] The cells were incubated for a further 30 min at 37° C. before epifluorescence imaging using a Zeiss Axiovert 200M microscope fitted with a mRM digital camera, a 63×1.3NA PlanApo objective and an EXFO-Excite illumination source.
Uptake was allowed to proceed for an additional 30 min at 37° C. before analysis by epifluorescence images as described elsewhere herein.
as §1, with “The diameter of the surrounding region was chosen to be 2 μm larger than the nucleus, within the range (1-3 μm) used by previously reported high content screens (Ding et al., 1998, J Biol Chem. 273:28897-28905; Peeraniet al., 2007, EMBO J. 26:4744-4755).” left out

[6] = test system: U2OS(GIGI) cells; test: GIGI in lysates, stably transfected U2OS(GIGI) cells; type: cell-based; conditions: Dex-labeled peptides, 24 h, lysates, read-out: EC50 (eGFP expression, GIGI)
From the text: RFUs are expressed±standard deviation (Excel). The maximum induction level is defined as RFUmax. Data were processed using Kaleidagraph and GraphPad Prism software. RFU=([I530]/[I580])−([I′530]/[I′580]) (1)
Y=Ymin+(Ymax−Ymin)/(1+10^logEC50-X) (2)

## GRKKRRQRRRPPQY [Tat]
[1]
  % in cytosol: 0.93%
  [molecule] in cytosol: 4.63 nM

## K^RhodGPSQPTYPGDDAPVEDLIRFYRDLRRYLNVVTRHRY-NH2 (K(rhodamine)GPSQPTYPGDDAPVEDLIRFYRDLRRYLNVVTRHRY-NH2; reading uncertain; also: printed as K^RhodGPSQPTYPGDDAPVEDLIRFYRDLRRYLNVVTRHRY-NH2) [4.3R]
[2]
  intracellular red fluorescent signal: red fluorescent puncta throughout the cytosol

## K^RhodGPSQPTYPGDDAPVRDLIRFYRDLQRYLRVVTRHRY-NH2 (K(Rhod)GPSQPTYPGDDAPVRDLIRFYRDLQRYLRVVTRHRY-NH2; reading uncertain; also: printed as KRhodGPSQPTYPGDDAPVRDLIRFYRDLQRYLRVVTRHRY-NH2) [5.2R]
[2]
  intracellular red fluorescent signal: red fluorescent puncta throughout the cytosol
[3]
  degradation by cathepsin B (HPLC): several additional small peaks

## K^DexGPSQPTYPGDDAPVEDLIRFYNDLQQYLNVVTRHRY-NH2 (K(dexamethasone)GPSQPTYPGDDAPVEDLIRFYNDLQQYLNVVTRHRY-NH2) [aPPDex]
[4]
  TR (GR-mCherry), cells expressing Rab5Q79L-GFP or Rab5-GFP: 1.25±0.04
[5]; 200 nM bafilomycin pretreatment 1 h, then 1 μM
  effect of bafilomycin on TR: did not alter the effect
[5]; 1 μM, 30 min
  translocation ratio (TR): 1.41±0.09
[5]; 50 μM EIPA pretreatment 30 min, then 1 μM, 30 min
  effect of EIPA on TR: None of the endocytosis inhibitors altered the TR
[5]; 80 μM dynasore pretreatment 30 min, then 1 μM, 30 min
  effect of dynasore on TR: None of the endocytosis inhibitors altered the TR
[5]; 5 mM MβCD pretreatment 30 min, then 1 μM, 30 min
  effect of methyl-β-cyclodextrin (MβCD) on TR: None of the endocytosis inhibitors altered the TR
[6]
  EC50: 438 nM

## RRRRRRRR [Arg8]
[1]
  % in cytosol: 2.8%
  [molecule] in cytosol: 14.0 nM

## K^DexWYSCNVCGKAFVLSAHLNQHLAVHTQAT-NH2 (K(dexamethasone)WYSCNVCGKAFVLSAHLNQHLAVHTQAT-NH2; cysteine pairing not given here) [ZFDex]
[5]; 1 μM, 30 min
  translocation ratio (TR): 1.4±0.05
[6]
  EC50: 103 nM

## WYSCNVCGKAFVLSRHLNRHLRVHRRAT [ZF5.3]
[1]
  % in cytosol: 59%
  [molecule] in cytosol: 249 nM

## K^RhodGPSQPTYPGDDAPVRDLIRFYRDLQRYLNVVTRHRY-NH2 (K(rhodamine)GPSQPTYPGDDAPVRDLIRFYRDLQRYLNVVTRHRY-NH2; reading uncertain; also: printed as K^RhodGPSQPTYPGDDAPVRDLIRFYRDLQRYLNVVTRHRY-NH2) [4.2R]
[2]
  intracellular red fluorescent signal: red fluorescent puncta throughout the cytosol

## C[C@@H]1C[C@H]2[C@@H]3CCC4=CC(=O)C=C[C@]4(C)[C@@]3(F)[C@@H](O)C[C@]2(C)[C@@]1(O)C(=O)CO [Dex, dexamethasone]
[4]; Rab5Q79L-GFP
  TR (GR-mCherry), Rab5Q79L-GFP expressing cells: 2.45±0.21
[4]; wild-type Rab5-GFP
  TR (GR-mCherry), Rab5-GFP expressing cells: 2.24±0.15
[5]; 5 mM MβCD, 1 μM
  reduction of the increase in TR by MβCD: 53%
